Measured values as given in US9663486B2, “Selectively substituted quinoline compounds” (EISAI R&D MANAGEMENT CO., LTD., priority 2013, dated 2017).

Assays:
human TLR8 = biological target: T1, human TLR8 (Homo sapiens, UniProt Q9NR97); assay: HEK-293 assay format, human TLR8 (CL097); format: cell-based; conditions: read-out: HEK/hTLR8 IC50
T1 construct: host or cells: HEK-293 stably expressing hTLR8, then transfected with pNiFty2(NF-kappaB)-luciferase
T1 sequence (Q9NR97 27-1041): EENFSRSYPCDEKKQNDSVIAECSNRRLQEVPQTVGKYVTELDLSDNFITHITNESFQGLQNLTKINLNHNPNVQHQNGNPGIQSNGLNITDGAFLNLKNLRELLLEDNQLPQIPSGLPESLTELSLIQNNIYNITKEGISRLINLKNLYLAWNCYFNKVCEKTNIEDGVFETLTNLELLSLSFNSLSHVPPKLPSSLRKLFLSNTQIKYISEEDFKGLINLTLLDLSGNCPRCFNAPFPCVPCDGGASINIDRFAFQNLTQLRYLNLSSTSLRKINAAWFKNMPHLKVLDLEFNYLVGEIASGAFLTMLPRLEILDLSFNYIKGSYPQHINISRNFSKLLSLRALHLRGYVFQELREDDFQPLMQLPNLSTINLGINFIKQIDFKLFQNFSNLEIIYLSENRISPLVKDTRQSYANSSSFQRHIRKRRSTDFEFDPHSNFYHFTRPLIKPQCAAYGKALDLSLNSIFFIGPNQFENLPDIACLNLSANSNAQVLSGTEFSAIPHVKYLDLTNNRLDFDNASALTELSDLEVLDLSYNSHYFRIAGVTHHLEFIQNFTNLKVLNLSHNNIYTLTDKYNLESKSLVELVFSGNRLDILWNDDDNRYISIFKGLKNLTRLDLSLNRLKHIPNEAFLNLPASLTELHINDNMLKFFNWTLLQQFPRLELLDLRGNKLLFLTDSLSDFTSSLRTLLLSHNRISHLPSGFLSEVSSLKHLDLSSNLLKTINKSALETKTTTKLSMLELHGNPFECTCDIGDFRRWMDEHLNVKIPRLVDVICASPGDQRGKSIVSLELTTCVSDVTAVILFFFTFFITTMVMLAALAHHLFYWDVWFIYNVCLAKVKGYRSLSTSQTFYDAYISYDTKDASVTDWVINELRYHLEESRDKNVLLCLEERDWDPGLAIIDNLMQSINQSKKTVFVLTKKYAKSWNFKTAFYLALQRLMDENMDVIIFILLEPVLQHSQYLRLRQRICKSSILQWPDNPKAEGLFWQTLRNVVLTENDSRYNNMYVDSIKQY
From the text: HEK-293 cells (ATCC) were engineered to stably express a NF-kappaB transcription factor inducible E-selectin (ELAM-1) luciferase reporter derived from the plasmid pGL3 (Promega) containing base pairs −2241 bp to −254 bp from the promoter of the human E-selectin gene (Accession No. NM_000450). These cells were then subsequently engineered to stably and individually express human TLR4, TLR7 or TLR9 full-length ORF cDNAs. Human TLR4 cDNA (Accession No. NM_138554) was cloned into pcDNA 3.0 expression vector (Invitrogen). TLR4 transfected cells were also engineered to express human MD-2 co-receptor [MD-2 cDNA (Accession No. NM_015364) was cloned into the pEF-BOS vector] and were supplemented with 10 nM soluble CD14 (R&D Systems) in the media to optimize LPS responsiveness. Human TLR9 cDNA (Accession No. NM_017442) was cloned into the pBluescript II KS vector (Agilent). Human TLR7 cDNA (Accession No. NM_016562) was obtained from OriGene. HEK-293 cells stably expressing human TLR8 (Accession No. NM_138636) or mouse TLR7 (Accession No. NM_133211) were purchased from InvivoGen and were then stably transfected with pNiFty2(NF-kappaB)-luciferase reporter plasmid (InvivoGen). Each cell type was plated in Dulbecco's modified Eagle's medium (DMEM) containing 10% fetal bovine serum (FBS) at a density of 2.22×10^5 cells/ml into a 384-well plate and incubated for 2 days at 37° C., 5% CO2. […]

Human TLR7/8 = assay: Human PBMC cell-based assay, TLR7/8 (RNA-Ig), cytokine ELISA; conditions: PBMC assay data summary; ligand and analyte not given; read-out: Human PBMCs IC50
Protocol: Human peripheral blood mononuclear cells (PBMC) were isolated from freshly-drawn heparinized (10 USP units/ml, Hospira, Lakeforest, Ill.) healthy donor whole blood by density gradient (Histopaque® 1077, Sigma, Inc., St. Louis, Mo.). Briefly, 25 ml blood was diluted with 15 ml PBS (without Ca^2+, Mg^2+) in a 50 ml conical tube, and 12 ml Histopaque was underlaid using a spinal needle. Tubes were centrifuged for 45 minutes at 1200 rpm (350×g), and PBMC were collected from the buffy coat. Cells were then washed twice in PBS, and red blood cells were lysed by suspension in 5 ml ammonium chloride solution (1× Red Blood Cell Lysis Buffer, eBioscience) for 5 minutes at room temperature. After a final wash in PBS, PBMC were resuspended at a final concentration of 2×10^6/ml in RPMI-1640 media with L-glutamine (Invitrogen) and supplemented with 25 mM HEPES (Mediatech, Inc, Manassas Va.), 10% fetal bovine serum (HyClone, Logan, Utah), and Penicillin-Streptomycin-Glutamine (Mediatech) and plated at 100 ul/well (2×10^5 cells/well) in tissue culture treated 96-well plates (Falcon).
Antagonist compounds solubilized and serial diluted in 100% DMSO were added in triplicate to cells to yield a final concentration of 0.1% DMSO (v/v). Hydroxychloroquine (Acros Organics) solubilized and serial diluted in PBS was added in triplicate to cells. PBMC were incubated with antagonist compounds or HCQ for 30 minutes at 37° C., 5% CO2 before adding various TLR agonist reagents in 100 ul complete media per well as follows (final concentrations indicated): R848 (Resiquimod; GLSynthesis, Worcester, Mass.) at 1 uM for TLR7 and TLR8, Pam3CSK4 (InvivoGen) at 50 ng/ml for TLR1/2, LPS (Sigma) at 10 ng/ml for TLR4, and CpG-2216 (InvivoGen) at 5 ug/ml for TLR9. […] The resulting “RNA-Ig” stimulus was incubated at room temperature for 15-30 minutes before adding to cells. PBMC were incubated with the various TLR agonists for 20 hours at 37° C., 5% CO2. Cell culture supernatants were collected, and levels of various human cytokines were assessed as indicated by standard ELISA procedure according to the manufacturer's recommended protocol (BD Biosciences, Inc., San Diego, Calif.).

N#Cc1ccc(N2CCC[C@@H](N)C2)c2cccnc12 [ER-878921]
IC50 (human TLR8): 74 nM | IC50 (Human TLR7/8): 90 nM
